{"source": "paper PMC6838324", "about": "“A suicide inhibitor of nematode trehalose-6-phosphate phosphatases” (Scientific Reports, 2019)", "key": {"Tcan-TPP": {"molecular_target": "Tcan-TPP (Toxocara canis, UniProt A0A0B2V3X6)", "sequence (A0A0B2V3X6 entry or part of it)": "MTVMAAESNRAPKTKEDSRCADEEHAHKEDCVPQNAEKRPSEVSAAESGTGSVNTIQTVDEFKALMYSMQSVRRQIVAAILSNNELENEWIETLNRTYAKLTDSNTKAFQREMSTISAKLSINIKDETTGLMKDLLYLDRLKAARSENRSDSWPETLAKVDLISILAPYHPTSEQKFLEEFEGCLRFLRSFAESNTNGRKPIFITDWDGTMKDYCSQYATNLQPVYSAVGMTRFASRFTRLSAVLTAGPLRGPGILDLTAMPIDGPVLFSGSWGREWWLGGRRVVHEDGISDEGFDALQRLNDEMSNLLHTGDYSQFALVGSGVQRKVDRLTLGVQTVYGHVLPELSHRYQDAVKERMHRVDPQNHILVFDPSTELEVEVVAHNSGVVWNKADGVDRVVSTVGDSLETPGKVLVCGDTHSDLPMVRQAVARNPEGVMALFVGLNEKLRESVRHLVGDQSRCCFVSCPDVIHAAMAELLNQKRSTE", "test": "biochemical", "type": "biochemical", "experimental": "(§1) Compounds were prepared in stocks of increasing concentration such that only 2 μL was added to reaction wells, thus keeping the DMSO concentration consistent at 4%. Enzyme in the absence of compound (with DMSO only) was run as a control and after correction for background absorbance, all test wells were scaled relative to the enzyme-only control. IC50 values were determined through fitting using either the software application SDAR[50] or DRfit[51]."}, "TPP from M. tuberculosis": {"molecular_target": "TPP from M. tuberculosis (Mycobacterium tuberculosis, UniProt P9WFZ5)", "sequence (P9WFZ5 whole entry, looked up)": "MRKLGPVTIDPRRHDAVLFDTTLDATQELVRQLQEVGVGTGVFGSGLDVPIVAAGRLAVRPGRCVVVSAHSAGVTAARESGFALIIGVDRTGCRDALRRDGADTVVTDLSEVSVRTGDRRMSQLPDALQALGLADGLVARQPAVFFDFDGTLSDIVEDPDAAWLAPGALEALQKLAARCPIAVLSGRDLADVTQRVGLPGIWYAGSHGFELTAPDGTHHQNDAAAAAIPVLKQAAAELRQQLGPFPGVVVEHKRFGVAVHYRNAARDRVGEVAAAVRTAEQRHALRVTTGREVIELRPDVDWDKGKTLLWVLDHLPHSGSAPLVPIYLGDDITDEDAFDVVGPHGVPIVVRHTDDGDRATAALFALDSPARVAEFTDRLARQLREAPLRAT", "test": "Phosphatase end-point assay, M. tuberculosis TPP", "type": "biochemical", "conditions": "25 μM compound"}, "Tcan-TPP-C215S": {"system": "Tcan-TPP-C215S", "test": "Phosphatase end-point assay, C215S mutant of T. canis TPP", "type": "biochemical, Toxocara canis", "conditions": "25 μM compound"}, "T. cati L3 larvae": {"system": "T. cati L3 larvae", "test": "L3 larvae survival assay, T. cati", "type": "cell-based", "experimental": "(§2) Control larvae were maintained in 0.4% DMSO in Minimal Essential Medium. The survival of L3s exposed to the compound was assessed at several time points after the start of the incubation using a light microscope (at 40× maginification)."}, "Paer-ecTPP": {"molecular_target": "Paer-ecTPP (Pseudomonas aeruginosa, UniProt B3G2E1)", "sequence (B3G2E1 entry or part of it)": "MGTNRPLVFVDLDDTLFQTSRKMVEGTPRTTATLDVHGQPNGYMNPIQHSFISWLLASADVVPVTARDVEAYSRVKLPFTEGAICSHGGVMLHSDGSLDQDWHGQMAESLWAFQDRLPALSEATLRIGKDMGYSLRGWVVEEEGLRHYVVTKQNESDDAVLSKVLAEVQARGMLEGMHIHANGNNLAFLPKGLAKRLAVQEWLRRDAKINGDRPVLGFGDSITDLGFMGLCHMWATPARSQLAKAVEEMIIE", "test": "Phosphatase end-point assay, extra-chromosomal TPP from P. aeruginosa", "type": "biochemical", "experimental": "as §1"}, "H. contortus xL3 larvae": {"system": "H. contortus xL3 larvae", "test": "Motility assay of exsheathed third-stage larvae (xL3) of H. contortus", "type": "cell-based, Haemonchus contortus", "conditions": "25 μM and 100 μM compound", "experimental": "The effects of compound 1 were assessed in a motility assay using exsheathed third-stage larvae (xL3s) of H. contortus in 96-well microculture plates (Corning 3635; Life Sciences, USA) and the control compounds moxidectin and monepantel, following the published protocol. In brief, 1 was diluted to the final concentration of 100 µM using Luria Bertani medium (LB) supplemented with 100 IU/mL of penicillin, 100 μg mL^−1 of streptomycin and 2.5 μg mL^−1 of amphotericin (LB*), and then dispensed in triplicate into wells of a 96-well microculture plate using a multichannel pipette. Additionally, the negative controls (LB*, LB* + 0.5% solvent; six wells each), and positive controls (20 µM monepantel; Zolvix, Novartis Animal Health, Switzerland and 20 µM moxidectin; Cydectin, Virbac, France; triplicate wells) and xL3s (~300 per well) were dispensed into wells of the plate using an automated multichannel pipette. Following incubation at 38 °C and 10% CO2 for 72 h, a video recording of 5 s duration was taken of each well using a grayscale camera (Rolera Bolt, QImaging, Canada) and a motorized X-Y axis stage (BioPoint2, Ludl Electronic Products, USA). Videos were processed to calculate a motility index (MI) using an algorithm described previously."}, "TPP from S. pneumoniae": {"system": "TPP from S. pneumoniae", "test": "Phosphatase end-point assay, S. pneumoniae TPP", "conditions": "25 μM compound", "protocol": "(§3) Phosphatase end-point assays were carried out following a previously established protocol[35]. Briefly, the phosphatase activity of Acey-TPP and Tcan-TPP was assessed using 500 μM trehalose-6-phosphate and 10 μM enzyme to be tested. Reactions were carried out in a volume of 50 μL in assay buffer (100 mM NaCl, 20 mM TRIS, pH 7.5). Individual compounds were added to the reaction mixtures at a final concentration of 25 μM, followed by incubation for 5 min before reactions were initiated by the addition of substrate (final DMSO concentration of 4%).\n(§4) Reactions were allowed to proceed for 5 min before quenching with 100 μL of BIOMOL® Green reagent (Enzo Life Sciences, New York, NY, USA). Absorbance at 620 nm was determined using a BioTek® Synergy 2 plate reader (BioTek, Winooski, VT, USA) after an incubation period of 15 min for colour development. All reactions were set up in triplicate in 96-well plates (Corning, Sigma-Aldrich, NSW, Australia) at 25 °C and control experiments in the absence of enzyme were used to correct for background absorbance.\n(§5) Raw data were exported as spreadsheets from the plate reader and assembled for statistical analysis with R[48] using the software jBar[49] for calculation of means and standard errors, background correction, normalisation and significance evaluation by a two-sided t-test."}, "T. canis L3 larvae": {"system": "T. canis L3 larvae", "test": "L3 larvae survival assay, T. canis", "type": "cell-based", "experimental": "as §2"}, "Hcon-TPP1": {"molecular_target": "Hcon-TPP1 (Haemonchus contortus, UniProt A0A7I4Z3L8)", "sequence (A0A7I4Z3L8 entry or part of it)": "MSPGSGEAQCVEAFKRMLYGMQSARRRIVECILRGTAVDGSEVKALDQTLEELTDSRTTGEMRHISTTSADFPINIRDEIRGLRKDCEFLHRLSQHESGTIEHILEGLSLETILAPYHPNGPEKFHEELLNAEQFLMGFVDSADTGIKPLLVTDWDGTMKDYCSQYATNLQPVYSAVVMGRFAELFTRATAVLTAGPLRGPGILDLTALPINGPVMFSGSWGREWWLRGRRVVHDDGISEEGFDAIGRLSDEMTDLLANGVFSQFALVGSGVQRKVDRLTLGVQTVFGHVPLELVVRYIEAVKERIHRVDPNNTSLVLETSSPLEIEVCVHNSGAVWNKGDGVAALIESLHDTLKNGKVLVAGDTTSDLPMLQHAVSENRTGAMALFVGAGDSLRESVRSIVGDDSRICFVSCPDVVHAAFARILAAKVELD", "test": "biochemical", "conditions": "for Ki: read-out: app. Ki, Hcon-TPP1, assuming a competitive inhibition model; for inhibition at 25 µM: read-out: inhibition of Hcon-TPP1 enzyme activity", "experimental": "as §1"}, "Acey-TPP": {"molecular_target": "Acey-TPP (Ancylostoma ceylanicum, UniProt A0A016UGW6)", "sequence (A0A016UGW6 entry or part of it)": "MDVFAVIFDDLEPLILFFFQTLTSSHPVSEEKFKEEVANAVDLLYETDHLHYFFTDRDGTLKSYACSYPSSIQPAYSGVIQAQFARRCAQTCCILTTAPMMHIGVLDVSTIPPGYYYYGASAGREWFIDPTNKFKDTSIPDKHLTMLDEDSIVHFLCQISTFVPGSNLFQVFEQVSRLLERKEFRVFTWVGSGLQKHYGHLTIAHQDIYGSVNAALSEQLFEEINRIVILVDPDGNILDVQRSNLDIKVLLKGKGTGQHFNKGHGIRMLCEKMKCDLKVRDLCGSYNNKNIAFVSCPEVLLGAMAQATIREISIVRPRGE", "test": "biochemical", "conditions": "for inhibition at 25 µM: read-out: inhibition of Acey-TPP enzyme activity", "experimental": "as §1"}, "TPP from S. maltophilia": {"system": "TPP from S. maltophilia", "test": "Phosphatase end-point assay, S. maltophilia TPP", "conditions": "25 μM compound", "protocol": "as §3, §4, §5"}, "[1]": {"molecular_target": "TPPs from different nematode and bacterial organisms", "conditions": "read-out: inhibition constants; cited from earlier work"}, "mycobacterial TPPs": {"system": "mycobacterial TPPs", "design": "method as in PMID 30402996", "conditions": "cited from earlier work"}, "[2]": {"conditions": "25 μM compound, compared with uninhibited enzyme"}, "[3]": {"conditions": "listed as N-(phenylthio)phthalimide"}}, "note": "“And” between values parts separate entries of the source, which are not always exact repeats. Equal values may be shown once. “Also recorded” adds a separate entry of the source. Read-outs that look alike come from different tables or passages of the source.", "data": [{"smiles": "O=C1c2ccccc2C(=O)N1Sc1ccccc1", "note": "[Compound 1, N-(phenylthio)phthalimide]", "values": [{"measurement": "IC50", "setting": "Tcan-TPP", "value": "0.89 ± 0.037", "unit": "µM"}, {"measurement": "inhibitory effect on phosphatase activity under reducing conditions", "setting": "Tcan-TPP; 25 μM compound, 1 mM DTT, Tcan-TPP", "value": "entirely suppressed"}, {"measurement": "inhibition of Tcan-TPP enzyme activity", "setting": "Tcan-TPP; [2]", "value": "complete annihilation"}, {"measurement": "Ki", "setting": "Tcan-TPP; app. Ki, Tcan-TPP, assuming a competitive inhibition model", "value": "0.6 µM and 0.56 µM"}, {"measurement": "inhibition of phosphatase activity", "setting": "TPP from M. tuberculosis", "value": "only the extra-chromosomal TPP from P. aeruginosa was susceptible to inhibition"}, {"measurement": "effect on enzymatic activity of mutant Tcan-TPP-C215S", "setting": "Tcan-TPP-C215S", "value": "did not affect the enzymatic activity"}, {"measurement": "lethality", "setting": "T. cati L3 larvae; T. cati larvae, 100 μM, after 3 h", "value": "> 80", "unit": "%"}, {"measurement": "LC50", "setting": "T. cati L3 larvae; Toxocara cati, 24 h, read-out: half maximum lethal concentration (IC50 in survival assay)", "value": 9.3, "unit": "µM"}, {"measurement": "inhibition of phosphatase activity", "setting": "Paer-ecTPP; 25 μM compound, P. aeruginosa extra-chromosomal TPP", "value": "susceptible to inhibition"}, {"measurement": "Ki", "setting": "Paer-ecTPP; Paer-ecTPP, assuming a competitive inhibition model, read-out: app. Ki", "value": 2.1, "unit": "µM"}, {"measurement": "IC50", "setting": "Paer-ecTPP; Paer-ecTPP, phosphatase end-point assay", "value": "2.1 ± 0.19", "unit": "µM"}, {"measurement": "motility of exsheathed H. contortus larvae (xL3)", "setting": "H. contortus xL3 larvae", "value": "only weakly impaired"}, {"measurement": "motility of exsheathed H. contortus larvae (xL3)", "setting": "H. contortus xL3 larvae; [3]", "value": "no bioactivity was observed; also recorded: no significant effects"}, {"measurement": "inhibition of phosphatase activity", "setting": "TPP from S. pneumoniae", "value": "only the extra-chromosomal TPP from P. aeruginosa was susceptible to inhibition"}, {"measurement": "lethality", "setting": "T. canis L3 larvae; T. canis larvae, 100 μM, after 24 h", "value": "> 80", "unit": "%"}, {"measurement": "LC50", "setting": "T. canis L3 larvae; Toxocara canis, 24 h, read-out: half maximum lethal concentration", "value": 61, "unit": "µM"}, {"measurement": "concentration at which enzymatic activity is almost entirely suppressed", "setting": "Hcon-TPP1; H. contortus TPP, dose-response", "value": "> 25", "unit": "µM"}, {"measurement": "IC50", "setting": "Hcon-TPP1; Hcon-TPP1, phosphatase end-point assay", "value": "6.6 ± 0.36", "unit": "µM"}, {"measurement": "Ki", "setting": "Hcon-TPP1", "value": 6, "unit": "µM"}, {"measurement": "Ki", "setting": "Hcon-TPP1; [3]", "value": 5.8, "unit": "µM"}, {"measurement": "inhibition at 25 µM", "setting": "Hcon-TPP1", "value": 82, "unit": "%"}, {"measurement": "inhibitory effect on phosphatase activity under reducing conditions", "setting": "Acey-TPP; 25 μM compound, 1 mM DTT, Acey-TPP", "value": "entirely suppressed"}, {"measurement": "inhibition of Acey-TPP enzyme activity", "setting": "Acey-TPP; [2]", "value": "complete annihilation"}, {"measurement": "inhibition at 25 µM", "setting": "Acey-TPP", "value": "> 50", "unit": "%"}, {"measurement": "inhibition of phosphatase activity", "setting": "TPP from S. maltophilia", "value": "only the extra-chromosomal TPP from P. aeruginosa was susceptible to inhibition"}]}, {"smiles": "O=C1NC(=O)c2ccccc21", "note": "[Compound 3, phthalimide]", "values": [{"measurement": "inhibition at 25 µM", "setting": "Tcan-TPP; read-out: inhibition of Tcan-TPP enzyme activity", "value": "≤ 20", "unit": "%"}, {"measurement": "inhibition at 25 µM", "setting": "Hcon-TPP1", "value": "≤ 20", "unit": "%"}, {"measurement": "inhibition at 25 µM", "setting": "Acey-TPP", "value": "≤ 20", "unit": "%"}]}, {"smiles": "O=S(=O)(O)OC[C@H]1O[C@H](O[C@H]2O[C@H](CO)[C@@H](O)[C@H](O)[C@H]2O)[C@H](O)[C@@H](O)[C@@H]1O", "note": "[trehalose-6-sulphate]", "values": [{"measurement": "Ki", "setting": "[1]", "value": "50 to 300", "unit": "µM"}]}, {"smiles": "OCC1=C[C@@H](N[C@H]2C[C@H](CO)[C@@H](O[C@H]3O[C@@H](CO)[C@H](O)[C@@H](O)[C@@H]3O)[C@H](O)[C@H]2O)[C@H](O)[C@@H](O)[C@@H]1O", "note": "[validamycin A]", "values": [{"measurement": "IC50", "setting": "mycobacterial TPPs", "value": "12600 to 15000", "unit": "µM"}]}]}
